These are literature values, as cited in US8940311B2, “In situ controlled release drug delivery system” (priority 2004, dated 2015).

One data set concerns the target plasma cholinesterase (Homo sapiens, UniProt P06276). To be noted: hydrolysis by plasma cholinesterase.

plasma cholinesterase, sequence (P06276 29-602): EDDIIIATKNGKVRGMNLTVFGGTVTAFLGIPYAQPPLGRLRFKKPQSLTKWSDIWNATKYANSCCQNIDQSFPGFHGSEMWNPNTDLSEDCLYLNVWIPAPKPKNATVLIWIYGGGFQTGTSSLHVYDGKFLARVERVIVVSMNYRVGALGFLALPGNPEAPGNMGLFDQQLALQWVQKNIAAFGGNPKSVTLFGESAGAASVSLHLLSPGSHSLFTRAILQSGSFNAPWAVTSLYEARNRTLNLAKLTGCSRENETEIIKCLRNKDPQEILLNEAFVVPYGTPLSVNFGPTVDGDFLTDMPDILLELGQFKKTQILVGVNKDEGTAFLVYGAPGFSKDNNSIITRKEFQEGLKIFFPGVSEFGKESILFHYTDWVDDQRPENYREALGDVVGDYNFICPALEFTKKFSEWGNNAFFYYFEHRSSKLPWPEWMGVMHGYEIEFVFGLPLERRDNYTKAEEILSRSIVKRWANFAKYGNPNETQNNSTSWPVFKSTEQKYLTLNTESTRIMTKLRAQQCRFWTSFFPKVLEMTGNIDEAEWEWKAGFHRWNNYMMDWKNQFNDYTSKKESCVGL

As to `CCCN(CC)C(CC)C(=O)Nc1c(C)cccc1C` (stereo not shown) [etidocaine], in the data set with liver microsomal enzymes, the “order of rate of amide hydrolysis” value is “fastest”.

Take `CCN(CC)CCOC(=O)c1ccc(N)cc1Cl` [chloroprocaine]: on plasma cholinesterase, the half-life entry was “less than one”.

In the case of `CCN(CC)CCOC(=O)c1ccc(N)cc1` [procaine], the half-life result at plasma cholinesterase is listed as “less than one”. As to `CCCCN1CCCCC1C(=O)Nc1c(C)cccc1C` (stereo not shown) [bupivacaine], the “order of rate of amide hydrolysis” value in the data set on liver microsomal enzymes is listed as “slowest”.
